According to paper PMC12366332 (Applied and Environmental Microbiology, 2025):
Read-outs that look alike come from different tables or passages of the source. Ends that are not written are not given here. Peptide text beside a SMILES is read from it. * marks the point of attachment. Hexanoyl = CCCCCC(=O)*

How the values were obtained:
[1] = tested on: X. fastidiosa subsp. fastidiosa IVIA 5387.2
horse erythrocytes = conditions: red cells of horse, 50 µM
tobacco leaves = conditions: 150 µM; after 48 h
E. coli 0111:B4 LPS = format: biochemical, Escherichia coli

| Molecule | Bactericidal activity Level ([1]; 50 µM) | Bactericidal activity Reduction in viability (Log N0/N) ([1]; 50 µM) | Hemolytic activity (%) (horse erythrocytes) | Phytotoxicity: diameter of the lesion (tobacco leaves) | LPS neutralization Ratio (treatment/NTC) (E. coli 0111:B4 LPS) | also measured |
| --- | --- | --- | --- | --- | --- | --- |
| CCCC(=O)N[C@@H](CCCCN)C(=O)N[C@@H](CCCCN)C(=O)N[C@@H](CC(C)C)C(=O)N[C@H](Cc1ccccc1)C(=O)N[C@@H](CCCCN)C(=O)N[C@@H](CCCCN)C(=O)N[C@H](C(=O)N[C@@H](CC(C)C)C(=O)N[C@@H](CCCCN)C(=O)N[C@@H](Cc1ccc(O)cc1)C(=O)N[C@@H](CC(C)C)C(N)=O)[C@@H](C)CC [BP485, C3H7CO-KKLfKKILKYL-NH2] | Moderate (key: Very High: very high bactericidal activity (>2.5 log); High: high bactericidal activity (between 2.0 and 2.5 log); Moderate: a moderate activity (between 1.5 and 2.0 log); Low: low active (<1.5 log)) | 1,92 Log N0/N | 3% | 3 mm | – | Bactericidal activity Reduction in viability (Log N0/N) ([1]; 12.5 µM): 0,49 Log N0/N |
| CF-KKLfKK(COC3H7)ILKYL-NH2 [BP473-CF] | – | – | – | – | – | Bactericidal activity Reduction in viability (Log N0/N) [1]: 0,91 Log N0/N |
| KKLfKKILKYL-NH2 [BP143] | – | 0,89 Log N0/N | – | – | 0,70 | – |
| CC[C@H](C)[C@H](NC(=O)CN)C(=O)NCC(=O)N[C@@H](C)C(=O)N[C@H](C(=O)N[C@@H](CC(C)C)C(=O)N[C@@H](CCCCN)C(=O)N[C@H](C(=O)N[C@@H](CC(C)C)C(=O)N[C@H](C(=O)N[C@H](C(=O)NCC(=O)N[C@@H](CC(C)C)C(=O)N1CCC[C@H]1C(=O)N[C@@H](C)C(=O)N[C@@H](CC(C)C)C(=O)N[C@H](C(=O)N[C@@H](CO)C(=O)N[C@@H](Cc1c[nH]c2ccccc12)C(=O)N[C@H](C(=O)N[C@@H](CCCCN)C(=O)N[C@@H](CCCNC(=N)N)C(=O)N[C@@H](CCCCN)C(=O)N[C@@H](CCCNC(=N)N)C(=O)N[C@@H](CCC(N)=O)C(=O)N[C@@H](CCC(N)=O)C(N)=O)[C@@H](C)CC)[C@@H](C)CC)[C@@H](C)O)[C@@H](C)O)C(C)C)C(C)C [Melittin, reference compound] | – | – | – | 10 mm | – | – |
| CCCCCCCCCCCC(=O)NCCCC[C@H](NC(=O)[C@@H](NC(=O)[C@H](CCCCN)NC(=O)[C@H](CCCCN)NC(=O)[C@@H](Cc1ccccc1)NC(=O)[C@H](CC(C)C)NC(=O)[C@H](CCCCN)NC(=O)[C@H](CCCCN)NC(C)=O)[C@@H](C)CC)C(=O)N[C@@H](CCCCN)C(=O)N[C@@H](Cc1ccc(O)cc1)C(=O)N[C@@H](CC(C)C)C(N)=O [BP490, Ac-KKLfKKIK(COC11H23)KYL-NH2] | High (key: Very High: very high bactericidal activity (>2.5 log); High: high bactericidal activity (between 2.0 and 2.5 log); Moderate: a moderate activity (between 1.5 and 2.0 log); Low: low active (<1.5 log)) | – | 100% | 6 mm | – | Bactericidal activity Reduction in viability (Log N0/N) ([1]; 3.1 µM): 1,28 Log N0/N |
| CCCCCCCCCCCC(=O)NCCCC[C@H](NC(=O)[C@H](CCCCN)NC(C)=O)C(=O)N[C@@H](CC(C)C)C(=O)N[C@@H](Cc1ccccc1)C(=O)N[C@@H](CCCCN)C(=O)N[C@@H](CCCCN)C(=O)N[C@H](C(=O)N[C@@H](CC(C)C)C(=O)N[C@@H](CCCCN)C(=O)N[C@@H](Cc1ccc(O)cc1)C(=O)N[C@@H](CC(C)C)C(N)=O)[C@@H](C)CC [BP393, Ac-KK(COC11H23)LFKKILKYL-NH2] | High (key: Very High: very high bactericidal activity (>2.5 log); High: high bactericidal activity (between 2.0 and 2.5 log); Moderate: a moderate activity (between 1.5 and 2.0 log); Low: low active (<1.5 log)) | – | – | 6 mm | – | EC50 ([1]; 3 h): 20.1 µM |
| CCCC(=O)NCCCC[C@H](NC(=O)[C@@H](NC(=O)[C@H](CCCCN)NC(=O)[C@H](CCCCN)NC(=O)[C@H](Cc1ccccc1)NC(=O)[C@H](CC(C)C)NC(=O)[C@H](CCCCN)NC(=O)[C@H](CCCCN)NC(C)=O)[C@@H](C)CC)C(=O)N[C@@H](CCCCN)C(=O)N[C@@H](Cc1ccc(O)cc1)C(=O)N[C@@H](CC(C)C)C(N)=O [BP387, Ac‐KKLFKKIK(COC3H7)KYL‐NH2] | Moderate (key: Very High: very high bactericidal activity (>2.5 log); High: high bactericidal activity (between 2.0 and 2.5 log); Moderate: a moderate activity (between 1.5 and 2.0 log); Low: low active (<1.5 log)) | 1,96 Log N0/N | 4% | 8 mm | – | Bactericidal activity Reduction in viability (Log N0/N) ([1]; 12.5 µM): 0,83 Log N0/N |
| FKLFKKILKVL-NH2 [BP013] | – | 1,03 Log N0/N | – | – | 1,13 | – |
| KKLFKKILKKL-NH2 [BP016] | – | 0,00 Log N0/N | – | – | 1,13 | – |
| c(LLKKKWKKLQ) (cyclic) [BPC098W] | Low (key: Very High: very high bactericidal activity (>2.5 log); High: high bactericidal activity (between 2.0 and 2.5 log); Moderate: a moderate activity (between 1.5 and 2.0 log); Low: low active (<1.5 log)) | 0,78 Log N0/N | – | – | 0,83 | – |
| KKVVFWVKFk-NH2 [BP442] | Low (key: Very High: very high bactericidal activity (>2.5 log); High: high bactericidal activity (between 2.0 and 2.5 log); Moderate: a moderate activity (between 1.5 and 2.0 log); Low: low active (<1.5 log)) | 1,09 Log N0/N | – | – | 0,76 | – |
| CCCC(=O)NCCCC[C@H](NC(=O)[C@H](CCCCN)NC(=O)[C@H](CC(C)C)NC(=O)[C@@H](NC(=O)[C@H](CCCCN)NC(=O)[C@H](CCCCN)NC(=O)[C@H](Cc1ccccc1)NC(=O)[C@H](CC(C)C)NC(=O)[C@H](CCCCN)NC(=O)[C@H](CCCCN)NC(C)=O)[C@@H](C)CC)C(=O)N[C@@H](CC(C)C)C(N)=O [BP389, Ac-KKLFKKILKK(COC3H7)L-NH2] | High (key: Very High: very high bactericidal activity (>2.5 log); High: high bactericidal activity (between 2.0 and 2.5 log); Moderate: a moderate activity (between 1.5 and 2.0 log); Low: low active (<1.5 log)) | – | 9% | 7 mm | – | Bactericidal activity Reduction in viability (Log N0/N) ([1]; 3.1 µM): 0,02 Log N0/N; Bactericidal activity Reduction in viability (Log N0/N) ([1]; 12.5 µM): 1,51 Log N0/N |
| KKlFKKILKYL-NH2 [BP144] | – | 0,68 Log N0/N | – | – | 1,07 | – |
| KkLFKKILKYL-NH2 [BP145] | – | 1,08 Log N0/N | – | – | 0,76 | – |
| CCCC(=O)NCCCC[C@H](NC(=O)[C@H](CCCCN)NC(=O)[C@H](CC(C)C)NC(=O)[C@@H](NC(=O)[C@H](CCCCN)NC(=O)[C@H](CCCCN)NC(=O)[C@@H](Cc1ccccc1)NC(=O)[C@H](CC(C)C)NC(=O)[C@H](CCCCN)NC(=O)[C@H](CCCCN)NC(C)=O)[C@@H](C)CC)C(=O)N[C@@H](CC(C)C)C(N)=O [BP475, Ac-KKLfKKILKK(COC3H7)L-NH2] | High (key: Very High: very high bactericidal activity (>2.5 log); High: high bactericidal activity (between 2.0 and 2.5 log); Moderate: a moderate activity (between 1.5 and 2.0 log); Low: low active (<1.5 log)) | – | 0% | 4 mm | – | Bactericidal activity Reduction in viability (Log N0/N) ([1]; 12.5 µM): 1,04 Log N0/N |
| Ac-LKLFKKILKVL-NH2 [BP022] | Moderate (key: Very High: very high bactericidal activity (>2.5 log); High: high bactericidal activity (between 2.0 and 2.5 log); Moderate: a moderate activity (between 1.5 and 2.0 log); Low: low active (<1.5 log)) | 1,87 Log N0/N | – | – | 0,61 | – |
| CCCCCC(=O)NCCCC[C@H](NC(=O)[C@@H](NC(=O)[C@H](CCCCN)NC(=O)[C@H](CCCCN)NC(=O)[C@H](Cc1ccccc1)NC(=O)[C@H](CC(C)C)NC(=O)[C@H](CCCCN)NC(=O)[C@H](CCCCN)NC(C)=O)[C@@H](C)CC)C(=O)N[C@@H](CCCCN)C(=O)N[C@@H](Cc1ccc(O)cc1)C(=O)N[C@@H](CC(C)C)C(N)=O [BP375, Ac-KKLFKKIK(COC5H11)KYL-NH2] (Ac-KKLFKKIK(Hexanoyl)KYL-NH2) | – | 1,37 Log N0/N | 23% | 10 mm | – | – |
| KKLFKKILKFL-NH2 [BP076] | – | 0,91 Log N0/N | – | – | 0,36 | – |
| KKLFKkILKYL-NH2 [BP146] | – | 1,25 Log N0/N | – | – | 0,73 | – |
| RKVRGPP-NH2 [Lf(28-34), RKVRGPP-NH2, reference compound] | – | – | 1% | 0 mm | – | – |
| KKLFKKILKVL-NH2 [BP015] | – | 1,13 Log N0/N | – | – | 1,10 | – |
| KKLFKKILKYL-NH2 [BP100] | Moderate (key: Very High: very high bactericidal activity (>2.5 log); High: high bactericidal activity (between 2.0 and 2.5 log); Moderate: a moderate activity (between 1.5 and 2.0 log); Low: low active (<1.5 log)) | 1,92 Log N0/N | – | – | 0,34 | – |
